Entries after “also recorded” stand apart in the source; their conditions may differ. Where two headings read alike, the source gives them in different places.
What was measured:
lysosomal a-glucosidase [1] = biological target: T1, lysosomal a-glucosidase (Homo sapiens, UniProt P10253); assay: purified lysosomal a-glucosidase activity towards 4MU-a-glucoside; assay type: biochemical
glucocerebrosidase [2] = biological target: T2, glucocerebrosidase (Homo sapiens, UniProt P04062); assay: conduritol B-epoxide inhibitable glucocerebrosidase activity in membrane fraction from human spleen; assay type: biochemical; settings: membrane suspension, 4MU-b-glucoside, pH 5.2; read-out: apparent Ki GLUCOCEREBROSIDASE MEMBRANES
T2 sequence (P04062 40-536): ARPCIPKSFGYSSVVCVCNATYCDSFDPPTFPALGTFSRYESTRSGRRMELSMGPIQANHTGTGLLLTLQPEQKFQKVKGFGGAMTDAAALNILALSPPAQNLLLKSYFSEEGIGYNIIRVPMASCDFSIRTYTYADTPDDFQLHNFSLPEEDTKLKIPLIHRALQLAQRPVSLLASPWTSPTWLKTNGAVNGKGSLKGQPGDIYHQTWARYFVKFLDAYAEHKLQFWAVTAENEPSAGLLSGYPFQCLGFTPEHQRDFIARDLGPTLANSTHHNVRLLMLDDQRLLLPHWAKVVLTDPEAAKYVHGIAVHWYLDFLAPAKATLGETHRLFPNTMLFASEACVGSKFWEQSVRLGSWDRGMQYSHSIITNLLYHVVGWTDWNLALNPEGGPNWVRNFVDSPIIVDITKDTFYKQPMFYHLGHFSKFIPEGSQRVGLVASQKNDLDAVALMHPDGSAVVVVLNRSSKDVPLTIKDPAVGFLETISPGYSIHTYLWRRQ

glucocerebrosidase [3] = biological target: T2, glucocerebrosidase; assay: glucocerebrosidase activity in intact melanoma cells (4MU-b-glucoside, conduritol B-epoxide sensitive); assay type: cell-based; parameters: the hydrolysis of 4MU-b-glucoside by cultured melanoma cells; endogenous in cells
[4] = biological target: T3, glucocerebrosidase (Ceredase) (Homo sapiens, UniProt P04062); assay: activity of soluble human placental glucocerebrosidase (Ceredase) towards 4MU-b-glucoside; assay type: biochemical; settings: soluble enzyme, 0.25% sodium taurocholate, 0.1% Triton X-100, pH 5.2; read-out: apparent Ki GLUCOCEREBROSIDASE CEREDASE
T3 construct: purchased Genzyme Corp. Boston,USA; host or cells: human placenta
T3 sequence (P04062 40-536): T2 sequence (P04062 40-536)

[5] = biological target: T4, glucosylceramide synthase (Homo sapiens, UniProt Q16739); assay: glucosylceramide synthase activity in cultured macrophages with C6-NBD ceramide; assay type: cell-based; parameters: glucosylceramide synthase activity in cultured macrophages was also determined; endogenous in cells; host or cells: cultured human macrophages; settings: presence of PDMP or PPMP
T4 sequence (Q16739 1-394): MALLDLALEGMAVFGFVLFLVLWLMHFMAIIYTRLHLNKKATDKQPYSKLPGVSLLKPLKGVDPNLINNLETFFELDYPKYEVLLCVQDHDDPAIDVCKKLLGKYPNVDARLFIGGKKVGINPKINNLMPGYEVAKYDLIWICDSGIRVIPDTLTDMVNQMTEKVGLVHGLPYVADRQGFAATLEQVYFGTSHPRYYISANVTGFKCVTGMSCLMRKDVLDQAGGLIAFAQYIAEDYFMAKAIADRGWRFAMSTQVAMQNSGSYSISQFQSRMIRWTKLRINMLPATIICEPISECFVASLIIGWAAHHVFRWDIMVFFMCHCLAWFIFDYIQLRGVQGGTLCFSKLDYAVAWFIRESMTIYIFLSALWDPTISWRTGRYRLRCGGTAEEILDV

chitotriosidase = chitotriosidase secretion by cultured macrophages; assay type: cell-based, human
glucosylceramidase [6] = biological target: T5, glucosylceramidase (Homo sapiens, UniProt Q9HCG7); assay: glucosylceramidase activity towards 4MU-b-glucoside in conduritol B-epoxide pre-treated membrane suspension from human spleen; settings: for inhibition of glucosylceramidase, in words: comparison among N-alkyl derivatives
T5 sequence (Q9HCG7 1-927): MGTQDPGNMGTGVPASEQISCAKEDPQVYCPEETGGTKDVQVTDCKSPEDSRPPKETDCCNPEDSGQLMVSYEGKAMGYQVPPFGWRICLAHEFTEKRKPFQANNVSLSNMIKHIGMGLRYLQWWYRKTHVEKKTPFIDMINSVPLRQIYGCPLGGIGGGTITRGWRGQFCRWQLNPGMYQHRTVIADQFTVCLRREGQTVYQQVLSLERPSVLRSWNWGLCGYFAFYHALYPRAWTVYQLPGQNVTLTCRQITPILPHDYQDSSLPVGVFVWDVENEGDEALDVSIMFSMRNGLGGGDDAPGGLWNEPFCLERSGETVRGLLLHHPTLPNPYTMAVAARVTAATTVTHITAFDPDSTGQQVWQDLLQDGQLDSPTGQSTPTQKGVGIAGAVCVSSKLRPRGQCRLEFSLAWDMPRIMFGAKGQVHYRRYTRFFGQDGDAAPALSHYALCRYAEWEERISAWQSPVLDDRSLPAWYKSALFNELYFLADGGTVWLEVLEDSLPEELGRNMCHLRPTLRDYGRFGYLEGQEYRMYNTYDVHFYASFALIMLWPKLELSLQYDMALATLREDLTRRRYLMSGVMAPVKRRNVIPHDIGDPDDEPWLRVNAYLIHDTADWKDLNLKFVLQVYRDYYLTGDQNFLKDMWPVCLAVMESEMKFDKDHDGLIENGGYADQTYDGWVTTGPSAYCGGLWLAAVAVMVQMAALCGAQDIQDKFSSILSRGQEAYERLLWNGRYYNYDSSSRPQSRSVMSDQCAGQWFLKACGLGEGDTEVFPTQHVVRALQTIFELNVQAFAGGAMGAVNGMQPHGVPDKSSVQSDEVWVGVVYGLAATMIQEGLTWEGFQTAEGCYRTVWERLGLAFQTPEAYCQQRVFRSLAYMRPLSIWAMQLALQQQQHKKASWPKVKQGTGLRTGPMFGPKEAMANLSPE

glucosylceramidase [7] = biological target: T5, glucosylceramidase; assay: glucosylceramidase activity in intact melanoma cells (4MU-b-glucoside, conduritol B-epoxide insensitive); assay type: cell-based; parameters: endogenous in cells
glycogen synthase = biological target: T6, glycogen synthase (Rattus norvegicus, UniProt P17625); assay: glycogen synthase in rat hepatocytes; assay type: cell-based; settings: at IC50 concentration for glucosylceramidase
T6 construct: endogenous in cells; host or cells: rat hepatocytes
T6 sequence (P17625 1-704): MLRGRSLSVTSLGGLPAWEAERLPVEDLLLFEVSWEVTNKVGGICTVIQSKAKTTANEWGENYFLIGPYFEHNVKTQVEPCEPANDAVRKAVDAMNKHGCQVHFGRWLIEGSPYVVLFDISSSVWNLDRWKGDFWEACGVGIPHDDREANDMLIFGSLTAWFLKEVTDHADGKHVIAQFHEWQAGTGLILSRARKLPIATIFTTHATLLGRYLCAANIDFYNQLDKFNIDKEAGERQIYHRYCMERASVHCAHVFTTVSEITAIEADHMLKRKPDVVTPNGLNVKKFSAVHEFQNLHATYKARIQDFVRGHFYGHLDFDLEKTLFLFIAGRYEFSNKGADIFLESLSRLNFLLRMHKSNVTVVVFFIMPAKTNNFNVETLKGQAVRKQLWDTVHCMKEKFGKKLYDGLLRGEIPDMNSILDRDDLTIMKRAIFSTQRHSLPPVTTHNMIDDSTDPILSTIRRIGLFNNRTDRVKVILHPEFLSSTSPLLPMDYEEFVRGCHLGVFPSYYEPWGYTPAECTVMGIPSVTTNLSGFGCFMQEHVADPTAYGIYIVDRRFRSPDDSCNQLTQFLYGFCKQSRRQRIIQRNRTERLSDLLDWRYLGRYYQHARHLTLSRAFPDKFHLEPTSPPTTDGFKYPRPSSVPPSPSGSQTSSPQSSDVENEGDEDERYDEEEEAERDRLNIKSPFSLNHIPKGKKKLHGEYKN

lysosomal a-glucosidase [8] = biological target: T1, lysosomal a-glucosidase; assay: lysosomal a-glucosidase in cultured melanoma cells; assay type: cell-based; parameters: endogenous in cells; settings: at IC50 concentration for glucosylceramidase
[9] = read-out: IC50 GLUCOSYLCERAMIDASE
[10] = 4MU-a-glucoside, pH 4.0, read-out: apparent Ki A-GLUCOSIDASE
[11] = intact melanoma cells, read-out: IC50 GLUCOCEREBROSIDASE
[12] = read-out: apparent Ki GLUCOSYLCERAMIDASE, membrane suspension, 4MU-b-glucoside, pH 5.2, competitive inhibition assumed

Row | Ki (lysosomal a-glucosidase [1]; [10]) [µM] | IC50 (glucocerebrosidase [3]; [11]) [µM] | SMILES | inhibition of lysosomal a-glucosidase, in words (lysosomal a-glucosidase [1]) | Ki (glucocerebrosidase [2]) [µM] | Ki [4] [µM] | Ki (glucosylceramidase [6]; [12]) [µM] | other results
1 | > 100 | 5 | O=C(CCCC(=O)N1C[C@H](O)[C@@H](O)[C@H](O)[C@H]1CO)OCC12CC3CC(CC(C3)C1)C2 [P4] | very poor inhibitors | 3.2 | 19.7 | 461 | IC50 (glucosylceramidase [7]; [9]): 200 µM
2 | 2.39 | > 1 | CCCCC(=O)N1C[C@H](O)[C@@H](O)[C@H](O)[C@H]1CO [PENTANOYLDNJ, N-pentanoyl DNJ, reference compound] | – | 83 | 670 | – | IC50 (glucosylceramidase [7]; [9]): 30 µM; Ki (glucosylceramidase [6]): 84 µM
3 | > 100 | 8 | O=C(CCCC(=O)N1C[C@H](O)[C@@H](O)[C@H](O)[C@H]1CO)OC12CC3CC(CC(C3)C1)C2 [P11] | very poor inhibitors | 4.1 | 113 | 306 | IC50 (glucosylceramidase [7]; [9]): 200 µM

Further lines, the compound ahead of its results:

Row | SMILES | Ki (lysosomal a-glucosidase [1]; [10]) [µM] | IC50 (glucocerebrosidase [3]; [11]) [µM] | inhibition of lysosomal a-glucosidase, in words (lysosomal a-glucosidase [1]) | Ki (glucocerebrosidase [2]) [µM] | Ki [4] [µM] | Ki (glucosylceramidase [6]; [12]) [µM] | other results
4 | O=C(CCCC(=O)N1C[C@H](O)[C@@H](O)[C@H](O)[C@H]1CO)Oc1cc2ccccc2c2ccccc12 [P16] | – | – | very poor inhibitors | 0.44 | 11.6 | – | Ki (lysosomal a-glucosidase [1]; read-out: apparent Ki A-GLUCOSIDASE, 4MU-a-glucoside, pH 4.0): > 100 µM; IC50 (glucocerebrosidase [3]; read-out: IC50 GLUCOCEREBROSIDASE, intact melanoma cells): > 1 µM
5 | CCCCCCCCCCCCCCCC(=O)NC(CN1CCOCC1)C(O)c1ccccc1 (stereo not drawn) [PPMP, 1-phenyl-2-hexadecanoylamino-3-morpholino-1-propanol] | – | – | – | – | – | – | inhibition of glucosylceramide synthase activity [5]: potently; effect on chitotriosidase secretion (chitotriosidase; cultured macrophages, glucosylceramide synthase inhibited): does not result in reduced; also recorded: without effect
6 | CCCCCCN1C[C@H](O)[C@@H](O)[C@H](O)[C@H]1CO [N-hexyl-deoxynojirimycin, reference compound] | – | – | – | – | – | – | inhibition of glucosylceramidase, in words (glucosylceramidase [6]): less potent inhibitor
7 | OCC1C(O)C(O)C(O)CN1CCCCCOCC12CC3CC(CC(C3)C1)C2 (stereo not drawn) [P21, N-(5-adamantane-1-yl-methoxy-pentyl) deoxynojirimycin] | – | – | – | – | – | – | inhibition of glycogen synthase (glycogen synthase): no inhibition; inhibition of lysosomal a-glucosidase (lysosomal a-glucosidase [8]): no inhibition; activity at 2.5 pM (chitotriosidase; Homo sapiens, Macrophage, 96 h, 0.0025 nM, 4 days, relative to no inhibitor (100%)): 105%; activity at 50 pM (chitotriosidase; Homo sapiens, Macrophage, 96 h, 0.05 nM, 4 days, relative to no inhibitor (100%)): 72%; activity at 0.001 µM (chitotriosidase; Homo sapiens, Macrophage, 96 h, 1 nM, 4 days, relative to no inhibitor (100%)): 64%
8 | CCCCCN1C[C@H](O)[C@@H](O)[C@H](O)[C@H]1CO [PENTYLDNJ, N-pentyl DNJ, reference compound] | – | > 1 | – | 8.5 | 249 | – | IC50 (glucosylceramidase [7]; IC50 GLUCOSYLCERAMIDASE): 0.15 µM; Ki (lysosomal a-glucosidase [1]): 3.74 µM; Ki (glucosylceramidase [6]): 0.038 µM; inhibition of glucosylceramidase, in words (glucosylceramidase [6]): Optimal inhibition
9 | CC(C)CCC[C@@H](C)[C@H]1CC[C@H]2[C@@H]3CC[C@H]4C[C@@H](OC(=O)CCCC(=O)N5C[C@H](O)[C@@H](O)[C@H](O)[C@H]5CO)CC[C@]4(C)[C@H]3CC[C@]12C [P13] | > 100 | – | very poor inhibitors | > 100 | 11.2 | > 100 | –
10 | CCCCN1C[C@H](O)[C@@H](O)[C@H](O)[C@H]1CO [BUTYLDNJ, butyl-deoxynojirimycin] | – | – | – | – | – | – | Ki (lysosomal a-glucosidase [1]): 6.43 µM; activity at 0.5 µM (chitotriosidase; Homo sapiens, Macrophage, 96 h, 0.5 uM, 4 days, relative to no inhibitor (100%)): 68%; activity at 5 µM (chitotriosidase; Homo sapiens, Macrophage, 96 h, 5 uM, 4 days, relative to no inhibitor (100%)): 49%; activity at 50 µM (chitotriosidase; Homo sapiens, Macrophage, 96 h, 50 uM, 4 days, relative to no inhibitor (100%)): 28%
11 | CCCN1C[C@H](O)[C@@H](O)[C@H](O)[C@H]1CO [PROPYLDNJ, N-propyl DNJ, reference compound] | – | – | – | 332 | 546 | – | IC50 (glucosylceramidase [7]; IC50 GLUCOSYLCERAMIDASE): 0.65 µM; Ki (lysosomal a-glucosidase [1]): 9.24 µM; IC50 (glucocerebrosidase [3]): > 1 µM; Ki (glucosylceramidase [6]): 0.123 µM
12 | CC(C)CCC[C@@H](C)[C@H]1CC[C@H]2[C@@H]3CC=C4C[C@@H](OC(=O)CCCC(=O)N5C[C@H](O)[C@@H](O)[C@H](O)[C@H]5CO)CC[C@]4(C)[C@H]3CC[C@]12C [P9] | > 100 | – | very poor inhibitors | > 100 | 51.6 | > 100 | –
